What was measured:
NRF2 target genes [1] = settings: corneal fibroblasts and monocytes; cited from earlier work
NRF2 target genes [2] = assay: RNA-sequencing of primary human dermal fibroblasts; format: cell-based; settings: 48 hours, 0.25 μM JQ-1
Protocol: RNA-sequencing RNA sequencing was performed as previously described (See Shin, J. Y. et al. Sci Transl Med 11, eaaw0790 (2019)). To assess the transcriptional signature of JQ-1, total RNA was isolated from three independent human fibroblast lines after 48 hours of treatment with DMSO or 0.25 μM JQ-1 using TRizol and RNeasy isolation columns (Qiagen) as per the manufacturer's instructions. DNA was digested with DNase treatment. All samples had RNA integrity numbers 9.60 or higher as measured with an Agilent 2100 Bioanalyzer. mRNA was enriched by poly-A selection, prepped using an Illumina TruSeq mRNA sample preparation kit, and sequenced by Illumina HiSeq 2000.
Differential Gene Expression and Pathway Enrichment Analyses Differential gene expression analysis was performed using BioJupies 126.

NRF2 target genes [3] = assay: Upregulation of canonical NRF2 target genes (no method given); format: cell-based

Structure (SMILES)	upregulation of NQO1 and HMOX1 (NRF2 target genes [1])	expression of canonical NRF2 target genes (NQO1, FTL, PRDX1, TXN, EGR1) (NRF2 target genes [2])	rank of the NRF2 pathway in gene ontology and genetic network analyses (NRF2 target genes [2])	induction of the canonical NRF2 target Nqo1 (NRF2 target genes [3])
Cc1sc2c(c1C)C(c1ccc(Cl)cc1)=N[C@@H](CC(=O)OC(C)(C)C)c1nnc(C)n1-2 [JQ-1, (S)-tert-butyl 2-(4-(4-chlorophenyl)-2,3,9-trimethyl-6H-thieno[3,2-f][1,2,4]triazolo[4,3-a][1,4]diazepin-6-yl)acetate]	upregulates NQO1 and HMOX1	upregulated a number of canonical NRF2 target genes	second most upregulated pathway	
C=C1C[C@@H]2[C@H](CC[C@]3(C)C(=O)CC[C@@H]23)[C@@]2(C)C=CC(=O)C=C12 [exemestane, 6-methylenandrosta-1,4-diene-3,17-dione]				upregulated the canonical NRF2 target Ngo1

Reference: patent US20250064846A1, “TREATMENT AND PREVENTION OF TRIGEMINAL NEURALGIA” (THE JOHNS HOPKINS UNIVERSITY, priority 2022, published 2025)
